Tested on: parasites (ring stage parasites, parasite growth)
Test: Parasite LDH growth assay (Parasite Assay), antiparasite potency
Format: cell-based
Conditions: 72 h, 72 hours growth, LDH readout; Table 3
Outline: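 Ring-stage culture was adjusted to 0.7% parasitemia and 2% haematocrit in bicarbonate-buffered RPMI-Hepes with heat-inactivated human serum and 0.5% albumax, then added to compound. Plates were incubated 72 h at 37 °C in gassed humidified boxes, frozen at −80 °C overnight and thawed, and growth was read by LDH assay.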

Question: With `COCC[C@H]([C@@H]1C[C@H]1C(=O)N[C@@H]1CC(C)(C)Oc2cc(C)ccc21)N1C(=N)NC(C)(C)CC1=O` [Example 83B] as the compound, how does the EC50 read?
Answer: 26 nM

Question: Which EC50 does the source give for `CCC1(C)CC(NC(=O)[C@@H]2C[C@H]2[C@@H](CCOC)N2C(=N)NC(C)(C)CC2=O)c2ccccc2O1` (some centres unmarked) [Example 75A] here?
Answer: 8.2 nM

Question: For `CC1(C)CC(=O)N(C[C@@H]2C[C@H]2C(=O)NC2CC(C)(C)Oc3ccc(OC(F)(F)F)cc32)C(=N)N1` (some centres unmarked) [Example 125A], which EC50 is on record?
Answer: 231 nM

Question: With `CCC1(CC)CC(=O)N(C[C@@H]2C[C@H]2C(=O)N[C@@H]2C[C@@H](C(F)(F)F)Oc3ccccc32)C(=N)N1` [Example 8B] as the compound, how does the EC50 read?
Answer: 5.3 nM

Question: For `CC1(C)CC(=O)N(C[C@@H]2C[C@H]2C(=O)N[C@H]2CC(C)(C)Oc3cccc(F)c32)C(=N)N1` [Example 87], which EC50 is on record?
Answer: 160 nM

Question: Which EC50 does the source give for `COCC[C@H]([C@@H]1C[C@H]1C(=O)N[C@@H]1CC(C)(C)Oc2cc(OC(F)(F)F)ccc21)N1C(=N)NC(C)(C)CC1=O` [Example 134A] here?
Answer: 71 nM

Question: With `CCC1(CC)CC(=O)N(C[C@@H]2C(C)[C@H]2C(=O)NC2c3ccccc3OC2(C)C)C(=N)N1` (some centres unmarked) [Example 36A] as the compound, how does the EC50 read?
Answer: 247 nM

Question: `COCC[C@H]([C@@H]1C[C@H]1C(=O)N[C@@H]1CC(C)(C)Oc2c(F)cc(F)cc21)N1C(=N)NC(C)(C)CC1=O` [Example 113A] was tested. Which EC50 did it give?
Answer: 19 nM

Question: For `CCC1(CC)CC(=O)N(C[C@H]2C[C@@H]2C(=O)N[C@H]2CCOc3ccccc32)C(=N)N1` [Example 4A], which EC50 is on record?
Answer: 94 nM

Question: For `COCC[C@H]([C@@H]1C[C@H]1C(=O)NC1CC2(CCC2)Oc2ccccc21)N1C(=N)NC(C)(C)CC1=O` (some centres unmarked) [Example 131A], which EC50 is on record?
Answer: 6.8 nM

Question: `COCC[C@H]([C@@H]1C[C@H]1C(=O)NC1CC(C)(C)Oc2cc(F)ccc21)N1C(=N)NC(C)(C)CC1=O` (some centres unmarked) [Example 76A] was tested. Which EC50 did it give?
Answer: 17 nM

Question: `CCC1(CC)CC(=O)N([C@H](CCOC)[C@@H]2C[C@H]2C(=O)N[C@@H]2c3ccccc3OCC2(C)C)C(=N)N1` [Example 19B] was tested. Which EC50 did it give?
Answer: 4.2 nM

Question: Which EC50 does the source give for `CC1(C)CC(=O)N(C[C@@H]2C[C@H]2C(=O)N[C@H]2CC(C)(C)Oc3c(C(F)(F)F)ccc(F)c32)C(=N)N1` [Example 99] here?
Answer: 130 nM

Question: With `CCC1(CC)CC(=O)N([C@H](CCOC)[C@@H]2C[C@H]2C(=O)N[C@H]2c3ccccc3OCC2(C)C)C(=N)N1` [Example 19A] as the compound, how does the EC50 read?
Answer: 28 nM

Question: Which EC50 does the source give for `COCC[C@H]([C@@H]1C[C@H]1C(=O)N[C@H]1CC(C)(C)Oc2ccc(C)cc21)N1C(=N)NC(C)(C)CC1=O` [Example 132] here?
Answer: 6.7 nM

Question: `COCC[C@H]([C@@H]1C[C@H]1C(=O)NC1CC(C)(C)Oc2c(Cl)cc(Cl)cc21)N1C(=N)NC(C)(C)CC1=O` (some centres unmarked) [Example 106A] was tested. Which EC50 did it give?
Answer: 7.4 nM

Question: Which EC50 does the source give for `CC1(C)CC(=O)N([C@H](c2cccnc2)[C@@H]2C[C@H]2C(=O)N[C@H]2C[C@H](C(F)(F)F)Oc3ccccc32)C(=N)N1` [Example 32] here?
Answer: 1.8 nM

Question: `CCC1(CC)CC(=O)N(CC2C(C(=O)N[C@H]3CCOc4ccccc43)C2(F)F)C(=N)N1` (some centres unmarked) [Example 15A] was tested. Which EC50 did it give?
Answer: 240 nM

Question: How did the EC50 turn out when `CC1(C)CC(=O)N([C@H](c2ccc(C#N)cc2)[C@@H]2C[C@H]2C(=O)N[C@H]2CC(C)(C)Oc3ccccc32)C(=N)N1` [Example 45A] was run?
Answer: 2.8 nM

Same assay, conditions: 72 h, 72 hours growth, LDH readout; Table 4 (unit inferred)

Question: For `CCC1(CC)CC(=O)N([C@H](CCOC)[C@@H]2C[C@H]2C(=O)NC2CC(C)(C)Oc3cccc(Cl)c32)C(=N)N1` (some centres unmarked) [Example 149A], which EC50 is on record?
Answer: 1 nM

Same assay, conditions: 72 hours growth, LDH readout; Table 3

Question: For `COCC[C@H]([C@@H]1C[C@H]1C(=O)NC1CC2(CCC2)Oc2ccccc21)N1C(=N)NC(C)(C)CC1=O` (some centres unmarked) [Example 131B], which EC50 is on record?
Answer: 6.1 nM

Question: How did the EC50 turn out when `CC(C)C1(C)CC(NC(=O)[C@@H]2C[C@H]2CN2C(=N)NC(C)(C)CC2=O)c2ccccc2O1` (single isomer, unassigned) [Example 79B] was run?
Answer: 275 nM

Question: How did the EC50 turn out when `CC1(C)CC(=O)N([C@H](c2cccnc2)[C@@H]2C[C@H]2C(=O)NC2CC(C)(C)Oc3cccc(F)c32)C(=N)N1` (some centres unmarked) [Example 86B] was run?
Answer: 2.8 nM

Question: Which EC50 does the source give for `CC[C@]1(C)CC(=O)N(C(c2cncc(F)c2)[C@@H]2C[C@H]2C(=O)N[C@@H]2c3ccccc3OC(C)(C)C2(C)O)C(=N)N1` (single isomer, unassigned) [Example 103B] here?
Answer: 2.1 nM

Question: Which EC50 does the source give for `CCC1(CC)CC(=O)N(C[C@@H]2C(C)[C@H]2C(=O)N[C@H]2C[C@H](C(F)(F)F)Oc3ccccc32)C(=N)N1` (some centres unmarked) [Example 28B] here?
Answer: 14 nM

Question: Which EC50 does the source give for `CCC1(C)CC(NC(=O)[C@@H]2C[C@H]2[C@@H](c2cccnc2)N2C(=N)NC(C)(C)CC2=O)c2ccccc2O1` (single isomer, unassigned) [Example 105D] here?
Answer: 0.9 nM

Question: With `COCC[C@H]([C@@H]1C[C@H]1C(=O)NC1CC(C)(C(C)C)Oc2ccccc21)N1C(=N)NC(C)(C)CC1=O` (single isomer, unassigned) [Example 80A] as the compound, how does the EC50 read?
Answer: 9.4 nM

Question: `CCC1(CC)CC(=O)N(C[C@@H]2C(C)[C@H]2C(=O)N[C@@H]2c3ccccc3CC2(C)O)C(=N)N1` (single isomer, unassigned) [Example 29C] was tested. Which EC50 did it give?
Answer: 113 nM

Question: With `COCC[C@H]([C@@H]1C[C@H]1C(=O)NC1CC(C)(COC)Oc2ccccc21)N1C(=N)NC(C)(C)CC1=O` (single isomer, unassigned) [Example 82D] as the compound, how does the EC50 read?
Answer: 27 nM

Question: `CCC1(CC)CC(=O)N(C[C@@H]2C(C)[C@H]2C(=O)N[C@H]2CC(C)(C)Oc3ccccc32)C(=N)N1` (single isomer, unassigned) [Example 25A] was tested. Which EC50 did it give?
Answer: 84 nM

Question: `CC1(C)CC(=O)N(C(c2cccc(C#N)c2)[C@@H]2C[C@H]2C(=O)NC2CC(C)(C)Oc3ccc(F)cc32)C(=N)N1` (some centres unmarked) [Example 53B] was tested. Which EC50 did it give?
Answer: 2.1 nM

Same assay, conditions: 72 hours growth, LDH readout; Table 4 (unit inferred)

Question: For `CCC1(CC)CC(=O)N([C@H](CCOC)[C@@H]2C[C@H]2C(=O)NC2CC(C)(C)Oc3cccc(Cl)c32)C(=N)N1` (some centres unmarked) [Example 149B], which EC50 is on record?
Answer: 1.2 nM
